The values below come from US6828347B2, “Anti-viral multi-quinone compounds and regiospecific synthesis thereof” (Illinois Institute of Technology, priority 2002, dated 2004).

One data set has as its system uninfected CEM-T4 cells. Description: Toxicity to uninfected CEM-T4 cells (MTT assay). In kind it is cell-based. The following applies: day 8, MTT. The method, then: The assays desirably measure the concentration of the multi-quinone that allows for 50% survival of CEM-T4 cells infected with HIV-1 and the concentration of multi-quinone that kills 50% of uninfected CEM-T4 cells. One skilled in the art will appreciate that other known assays or tests for determining antiviral activity may be used.
The chlorohydroxybiquinone was tested for anti-HIV activity by the CEM-T4 cytoprotection assay which measures the inhibition of viral cytopathogenic effects. CEM-T4 cells used for the assay were maintained in RPMI-1640 culture medium containing 2 millimoles L-glutamine and 25 millimoles HEPES, and supplemented with 10% fetal bovine serum, 50 units/milliliter of penicillin G, and 50 microgram/milliliter streptomycin sulfate. The antiviral assays were performed in 96-well tissue culture plates. Cells were treated with polybrene at a concentration of 2 microgram/milliliter, and 1×10^4 cells were dispensed into each well. Appropriate concentrations of the biquinone were prepared in sterile DMSO and diluted with culture medium to the desired concentrations. Each dilution of test compound was added to multiple wells of cells, and the cells were incubated at 37° C. for one hour. Cells were then infected at a multiplicity of infection of 0.025 TCID50/cell by the addition of a diluted stock of the HTLV-IIIB strain of HIV-1. […]
Assay plates were incubated at 37° C. in a humidified 5% carbon dioxide (CO2) atmosphere and examined microscopically for toxicity and/or cytopathogenic effect. Once the viral cytopathogenic effect was maximal (the eighth day post-infection), the surviving cells in each test well were quantified using the MTT assay known in the art and described in Pauwels et al., “Rapid and Automated Tetrazolium-based Colorimetric Assay for the Detection of Anti-HIV Compounds,” J. Virol. […] When a dose-dependent effect for either anti-HIV activity or cytotoxicity was observed, values for the 50% effective dose were calculated using the dose-effect analysis software of Chou and Chou, available from Elsevier-Biosoft.

The test system of data set [1] is retroviruses such as an HIV. The conditions noted are these: as disclosed in the Boyd et al. Patents; cited from earlier work.

Structures are written as SMILES.

As for `COC1=C(C2=C(Cl)C(=O)c3ccccc3C2=O)C(=O)c2ccc3c(c2C1=O)C=C[C@@](C)(CCC=C(C)C)O3` [chloromethoxybiquinone, 8-(3-Chloro-1,4-dioxo-1,4-dihydro-napthalen-2-yl)-9-methoxy-3-methyl-3-(4-methyl-pent-3-enyl)-3H-benzo[f]chromene-7,10-dione], in the data set on uninfected CEM-T4 cells, the “TD50 (concentration to cause reduction of cell growth by 50% of uninfected controls)” value was determined as 5.4 µM.

On to `CC(C)=CCC[C@]1(C)C=Cc2c(ccc3c2C(=O)C(O)=C(C2=C(C4=C(O)C(=O)c5c(ccc6c5C=C[C@@](C)(CCC=C(C)C)O6)C4=O)C(=O)c4c(ccc5c4C=C[C@@](C)(CCC=C(C)C)O5)C2=O)C3=O)O1` [conocurvone], for which the “antiviral activity (growth and replication of viruses)” value in data set [1] was “inhibit the growth and replication of viruses”.

Regarding `COC1=C(C2=C(C3=C(O)C(=O)c4ccccc4C3=O)C(=O)c3ccccc3C2=O)C(=O)c2ccc3c(c2C1=O)C=CC(C)(C)O3` [trimeric quinone, 3-Hydroxy-3′-(9-methoxy-3,3-dimethyl-7,10-dioxo-7,10-dihydro-3H-benzo[f]chromen-8-yl)-2,2′-binaphthalenyl-1,4,1′,4′-tetraone], the “TD50 (concentration to cause reduction of cell growth by 50% of uninfected controls)” value in the data set with uninfected CEM-T4 cells was 17 µM.

`CC(C)=CCC[C@]1(C)C=Cc2c(ccc3c2C(=O)C(O)=C(C2=C(Cl)C(=O)c4ccccc4C2=O)C3=O)O1` [chlorohydroxybiquinone, 8-(3-Chloro-1,4-dioxo-1,4-dihydronapthalen-2-yl)-9-hydroxy-3-methyl-3-(4-methyl-pent-3-enyl)-3H-benzo[f]chromene-7,10-dione]: the “TD50 (concentration to cause reduction of cell growth by 50% of uninfected controls)” value with uninfected CEM-T4 cells was 2.7 µM.
